# Measured values reported in patent publication US4143134A, “Halo-phosphonopeptides” (Hoffmann-La Roche Inc., priority 1976, dated 1979).
# Legend:
# Assay type in all cases: cell-based
# [1] = test system: Escherichia coli NCTC 10418 P.S.; assay: in vitro M.I.C. test against Escherichia coli NCTC 10418 P.S.; details: NCTC10418, read-out: M.I.C. (minimum inhibitory concentration)
# Description: (§1) The following Table illustrates the minimum inhibitory concentration (M.I.C.) in μg/ml of a representative peptide derivative provided by this invention, namely (1R)-1-(L-3-fluoroalanylamino)-ethylphosphonic acid, in an in vitro test against various organisms.
# [2] = test system: Escherichia coli NCIB 8879 P.S.; assay: in vitro M.I.C. test against Escherichia coli NCIB 8879 P.S.; details: NCIB8879, read-out: M.I.C. (minimum inhibitory concentration)
# Description: as §1
# [3] = test system: Klebsiella aerogenes Type 33 Ba; assay: in vitro M.I.C. test against Klebsiella aerogenes Type 33 Ba; details: TYPE33BA, read-out: M.I.C. (minimum inhibitory concentration)
# Description: as §1
# [4] = test system: Klebsiella aerogenes O-G KAl; assay: in vitro M.I.C. test against Klebsiella aerogenes O-G KAl; details: read-out: M.I.C. (minimum inhibitory concentration)
# Description: as §1
# [5] = test system: Escherichia coli C.1.5 P.R.; assay: in vitro M.I.C. test against Escherichia coli C.1.5 P.R.; details: read-out: M.I.C. (minimum inhibitory concentration)
# Description: as §1
# [6] = test system: Haemophilus influenzae NCTC 4560; assay: in vitro M.I.C. test against Haemophilus influenzae NCTC 4560; details: NCTC4560, read-out: M.I.C. (minimum inhibitory concentration)
# Description: as §1
smiles,measurement,setting,value
C[C@H](NC(=O)[C@@H](N)CF)P(=O)(O)O [(1R)-1-(L-3-fluoroalanylamino)-ethylphosphonic acid],MIC,[1],0.25 µg/mL
same,MIC,[2],0.5 µg/mL
same,MIC,[3],1 µg/mL
same,MIC,[4],4 µg/mL
same,MIC,[5],4 µg/mL
same,MIC,[6],8 µg/mL
